Data from PubChem BioAssay (NCI).
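Protocol summary: plate cells (96-well), add compound at 5 concentrations, incubate 48 h, interpolate endpoints linearly. GI50 is the concentration that inhibits growth by half. Definition used: TGI = concentration required for complete inhibition of growth.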

Key:
Assay in all cases: inhibition of tumour cell growth, NCI panel, 48 h
MOLT-4 leukemia = tested on: MOLT-4 leukemia
EKVX NSCLC = tested on: EKVX NSCLC
CCRF-CEM leukemia = tested on: CCRF-CEM leukemia
HCT-15 colon = tested on: HCT-15 colon
SK-MEL-28 melanoma = tested on: SK-MEL-28 melanoma
BT-549 breast = tested on: BT-549 breast
NCI-H522 lung = tested on: NCI-H522 lung
KM12 colon = tested on: KM12 colon
HS 578T breast = tested on: HS 578T breast
HT29 colon = tested on: HT29 colon
HOP-92 NSCLC = tested on: HOP-92 NSCLC
NCI/ADR-RES ovarian = tested on: NCI/ADR-RES ovarian
SF-268 CNS = tested on: SF-268 CNS
OVCAR-4 ovarian = tested on: OVCAR-4 ovarian
UACC-62 melanoma = tested on: UACC-62 melanoma
MALME-3M melanoma = tested on: MALME-3M melanoma
RPMI-8226 leukemia = tested on: RPMI-8226 leukemia
T-47D breast = tested on: T-47D breast
UO-31 renal = tested on: UO-31 renal
CAKI-1 renal = tested on: CAKI-1 renal
K-562 leukemia = tested on: K-562 leukemia
MCF7 breast = tested on: MCF7 breast
DU-145 prostate = tested on: DU-145 prostate
SK-MEL-2 melanoma = tested on: SK-MEL-2 melanoma
786-0 renal = tested on: 786-0 renal
HCC-2998 colon = tested on: HCC-2998 colon
COLO 205 colon = tested on: COLO 205 colon
SK-OV-3 ovarian = tested on: SK-OV-3 ovarian
LOX IMVI melanoma = tested on: LOX IMVI melanoma
ACHN renal = tested on: ACHN renal
UACC-257 melanoma = tested on: UACC-257 melanoma
MDA-MB-231 breast = tested on: MDA-MB-231 breast
NCI-H23 lung = tested on: NCI-H23 lung
SW-620 colon = tested on: SW-620 colon
SF-539 CNS = tested on: SF-539 CNS
IGROV1 ovarian = tested on: IGROV1 ovarian
OVCAR-3 ovarian = tested on: OVCAR-3 ovarian
A498 renal = tested on: A498 renal
SNB-19 CNS = tested on: SNB-19 CNS
PC-3 prostate = tested on: PC-3 prostate
M14 melanoma = tested on: M14 melanoma
SF-295 CNS = tested on: SF-295 CNS
U251 CNS = tested on: U251 CNS
OVCAR-5 ovarian = tested on: OVCAR-5 ovarian
MDA-MB-435 = tested on: MDA-MB-435
TK-10 renal = tested on: TK-10 renal
NCI-H226 lung = tested on: NCI-H226 lung
HOP-62 NSCLC = tested on: HOP-62 NSCLC
SN12C renal = tested on: SN12C renal
A549 NSCLC = tested on: A549 NSCLC
SK-MEL-5 melanoma = tested on: SK-MEL-5 melanoma
HCT-116 colon = tested on: HCT-116 colon
OVCAR-8 ovarian = tested on: OVCAR-8 ovarian
SNB-75 CNS = tested on: SNB-75 CNS
SR leukemia = tested on: SR leukemia
NCI-H460 lung = tested on: NCI-H460 lung
RXF 393 renal = tested on: RXF 393 renal

Question: For `CCS(=O)(=O)N1CCN(c2ccc(Nc3ncc(C(N)=O)c(NC4CC4)n3)cc2)CC1`, which GI50 (MOLT-4 leukemia) is on record?
Answer: 2.7 µM

Question: And the TGI (MOLT-4 leukemia)?
Answer: 16.5 µM

Question: What about the GI50 (EKVX NSCLC) of the same molecule?
Answer: 63 µM

Question: What about the TGI (EKVX NSCLC) of the same molecule?
Answer: > 100 µM

Question: What about the GI50 (CCRF-CEM leukemia) of the same molecule?
Answer: 0.749 µM

Question: What about the TGI (CCRF-CEM leukemia) of the same molecule?
Answer: 10.9 µM

Question: What about the GI50 (HCT-15 colon) of the same molecule?
Answer: 2.64 µM

Question: And the TGI (HCT-15 colon)?
Answer: 27.1 µM

Question: What about the GI50 (SK-MEL-28 melanoma) of the same molecule?
Answer: 13.6 µM

Question: And the TGI (SK-MEL-28 melanoma)?
Answer: 35.6 µM

Question: And the GI50 (BT-549 breast)?
Answer: 3.19 µM

Question: And the TGI (BT-549 breast)?
Answer: 11.3 µM

Question: And the GI50 (NCI-H522 lung)?
Answer: 14.1 µM

Question: What about the TGI (NCI-H522 lung) of the same molecule?
Answer: 44.1 µM

Question: What about the GI50 (KM12 colon) of the same molecule?
Answer: 0.812 µM

Question: What about the TGI (KM12 colon) of the same molecule?
Answer: 18.5 µM

Question: What about the GI50 (HS 578T breast) of the same molecule?
Answer: 10.9 µM

Question: What about the TGI (HS 578T breast) of the same molecule?
Answer: 57.3 µM

Question: And the GI50 (HT29 colon)?
Answer: 6.14 µM

Question: What about the TGI (HT29 colon) of the same molecule?
Answer: 21.6 µM

Question: What about the GI50 (HOP-92 NSCLC) of the same molecule?
Answer: 4.9 µM

Question: What about the TGI (HOP-92 NSCLC) of the same molecule?
Answer: > 100 µM

Question: What about the GI50 (NCI/ADR-RES ovarian) of the same molecule?
Answer: 9.59 µM

Question: And the TGI (NCI/ADR-RES ovarian)?
Answer: > 100 µM

Question: What about the GI50 (SF-268 CNS) of the same molecule?
Answer: 13.9 µM

Question: What about the TGI (SF-268 CNS) of the same molecule?
Answer: 52.9 µM

Question: What about the GI50 (OVCAR-4 ovarian) of the same molecule?
Answer: 12.1 µM

Question: What about the TGI (OVCAR-4 ovarian) of the same molecule?
Answer: > 100 µM

Question: What about the GI50 (UACC-62 melanoma) of the same molecule?
Answer: 15.7 µM

Question: And the TGI (UACC-62 melanoma)?
Answer: 44 µM

Question: What about the GI50 (MALME-3M melanoma) of the same molecule?
Answer: 20 µM

Question: And the TGI (MALME-3M melanoma)?
Answer: 85.2 µM

Question: What about the GI50 (RPMI-8226 leukemia) of the same molecule?
Answer: 2.16 µM

Question: What about the TGI (RPMI-8226 leukemia) of the same molecule?
Answer: 9.82 µM

Question: What about the GI50 (T-47D breast) of the same molecule?
Answer: 2.88 µM

Question: And the TGI (T-47D breast)?
Answer: 13.9 µM

Question: And the GI50 (UO-31 renal)?
Answer: 1.1 µM

Question: What about the TGI (UO-31 renal) of the same molecule?
Answer: 18.4 µM

Question: And the GI50 (CAKI-1 renal)?
Answer: 5.46 µM

Question: What about the TGI (CAKI-1 renal) of the same molecule?
Answer: 28.5 µM

Question: And the GI50 (K-562 leukemia)?
Answer: 4.94 µM

Question: And the TGI (K-562 leukemia)?
Answer: > 100 µM

Question: And the GI50 (MCF7 breast)?
Answer: 4.77 µM

Question: What about the TGI (MCF7 breast) of the same molecule?
Answer: > 100 µM

Question: And the GI50 (DU-145 prostate)?
Answer: 8.63 µM

Question: And the TGI (DU-145 prostate)?
Answer: > 100 µM

Question: And the GI50 (SK-MEL-2 melanoma)?
Answer: 4.62 µM

Question: What about the TGI (SK-MEL-2 melanoma) of the same molecule?
Answer: 21.4 µM

Question: And the GI50 (786-0 renal)?
Answer: 5.31 µM

Question: What about the TGI (786-0 renal) of the same molecule?
Answer: > 100 µM

Question: What about the GI50 (HCC-2998 colon) of the same molecule?
Answer: 23.8 µM

Question: What about the TGI (HCC-2998 colon) of the same molecule?
Answer: > 100 µM

Question: And the GI50 (COLO 205 colon)?
Answer: 2.61 µM

Question: And the TGI (COLO 205 colon)?
Answer: 21.2 µM

Question: And the GI50 (SK-OV-3 ovarian)?
Answer: 7.93 µM

Question: And the TGI (SK-OV-3 ovarian)?
Answer: 26.3 µM

Question: What about the GI50 (LOX IMVI melanoma) of the same molecule?
Answer: 3.07 µM

Question: And the TGI (LOX IMVI melanoma)?
Answer: > 100 µM

Question: What about the GI50 (ACHN renal) of the same molecule?
Answer: 12.5 µM

Question: And the TGI (ACHN renal)?
Answer: 82.8 µM

Question: And the GI50 (UACC-257 melanoma)?
Answer: 21.2 µM

Question: And the TGI (UACC-257 melanoma)?
Answer: > 100 µM

Question: And the GI50 (MDA-MB-231 breast)?
Answer: 22.8 µM

Question: And the TGI (MDA-MB-231 breast)?
Answer: > 100 µM

Question: And the GI50 (NCI-H23 lung)?
Answer: 5.46 µM

Question: What about the TGI (NCI-H23 lung) of the same molecule?
Answer: > 100 µM

Question: And the GI50 (SW-620 colon)?
Answer: 20.6 µM

Question: What about the TGI (SW-620 colon) of the same molecule?
Answer: 61.9 µM

Question: What about the GI50 (SF-539 CNS) of the same molecule?
Answer: 2.09 µM

Question: What about the TGI (SF-539 CNS) of the same molecule?
Answer: 10.7 µM

Question: And the GI50 (IGROV1 ovarian)?
Answer: 5.29 µM

Question: And the TGI (IGROV1 ovarian)?
Answer: > 100 µM

Question: What about the GI50 (OVCAR-3 ovarian) of the same molecule?
Answer: 5.73 µM

Question: What about the TGI (OVCAR-3 ovarian) of the same molecule?
Answer: 31.4 µM

Question: And the GI50 (A498 renal)?
Answer: 4.32 µM

Question: What about the TGI (A498 renal) of the same molecule?
Answer: 8.97 µM

Question: And the GI50 (SNB-19 CNS)?
Answer: 38 µM

Question: What about the TGI (SNB-19 CNS) of the same molecule?
Answer: > 100 µM

Question: What about the GI50 (PC-3 prostate) of the same molecule?
Answer: 16.1 µM

Question: What about the TGI (PC-3 prostate) of the same molecule?
Answer: > 100 µM

Question: What about the GI50 (M14 melanoma) of the same molecule?
Answer: 3.23 µM

Question: And the TGI (M14 melanoma)?
Answer: 69 µM

Question: What about the GI50 (SF-295 CNS) of the same molecule?
Answer: 5.01 µM

Question: And the TGI (SF-295 CNS)?
Answer: 94.3 µM

Question: What about the GI50 (U251 CNS) of the same molecule?
Answer: 54.1 µM

Question: And the TGI (U251 CNS)?
Answer: > 100 µM

Question: And the GI50 (OVCAR-5 ovarian)?
Answer: 36.8 µM

Question: What about the TGI (OVCAR-5 ovarian) of the same molecule?
Answer: > 100 µM

Question: What about the GI50 (MDA-MB-435) of the same molecule?
Answer: 5.6 µM

Question: What about the TGI (MDA-MB-435) of the same molecule?
Answer: > 100 µM

Question: And the GI50 (TK-10 renal)?
Answer: 9.19 µM

Question: What about the TGI (TK-10 renal) of the same molecule?
Answer: 32.2 µM

Question: And the GI50 (NCI-H226 lung)?
Answer: 7.12 µM

Question: And the TGI (NCI-H226 lung)?
Answer: 35.9 µM

Question: And the GI50 (HOP-62 NSCLC)?
Answer: 3.51 µM

Question: What about the TGI (HOP-62 NSCLC) of the same molecule?
Answer: 29.7 µM

Question: What about the GI50 (SN12C renal) of the same molecule?
Answer: 2.6 µM

Question: And the TGI (SN12C renal)?
Answer: 49.6 µM

Question: And the GI50 (A549 NSCLC)?
Answer: 19 µM

Question: What about the TGI (A549 NSCLC) of the same molecule?
Answer: > 100 µM

Question: What about the GI50 (SK-MEL-5 melanoma) of the same molecule?
Answer: 3.13 µM

Question: And the TGI (SK-MEL-5 melanoma)?
Answer: 26.6 µM

Question: What about the GI50 (HCT-116 colon) of the same molecule?
Answer: 5.84 µM

Question: What about the TGI (HCT-116 colon) of the same molecule?
Answer: > 100 µM

Question: And the GI50 (OVCAR-8 ovarian)?
Answer: 5.62 µM

Question: What about the TGI (OVCAR-8 ovarian) of the same molecule?
Answer: 88.1 µM

Question: And the GI50 (SNB-75 CNS)?
Answer: 2.46 µM

Question: And the TGI (SNB-75 CNS)?
Answer: 9.53 µM

Question: What about the GI50 (SR leukemia) of the same molecule?
Answer: 2.78 µM

Question: What about the TGI (SR leukemia) of the same molecule?
Answer: 23.4 µM

Question: What about the GI50 (NCI-H460 lung) of the same molecule?
Answer: 15.3 µM

Question: And the TGI (NCI-H460 lung)?
Answer: 59.9 µM

Question: And the GI50 (RXF 393 renal)?
Answer: 1.61 µM

Question: And the TGI (RXF 393 renal)?
Answer: 9.46 µM
